Laboratory results from patent US20140142023A1, “Pharmaceutical Composition for Treating A Metabolic Syndrome” (SANOFI, priority 2011, published 2014).
Ends that are not written are not given here.

Key:
db/db mice [1] = assay: Fed blood glucose in db/db mice (age of 6 weeks); type: in vivo; conditions: fed conditions, up to 4 weeks, AVE0010 0.05, FGF-21 0.75 mg/kg/day s.c. or combined
Description: (§1) Female db/db mice (BKS.Cg-m+/+Leprdb/J, age of 6 weeks) were treated with vehicle (PBS), 0.05 mg·kg^−1·day^−1 AVE0010, 0.75 mg·kg^−1·day^−1 recombinant human FGF-21 (SEQ ID NO: 2) or a combined dose of FGF-21 (SEQ ID NO: 2) and AVE0010 (0.75+0.05 mg·kg^−1·day^−1) subcutaneously once daily. Mice were fed ad libitum. Before the first treatment, after one week and 4 weeks blood glucose and HbA1c were measured under fed conditions. After 21 days of treatment an oral glucose tolerance test (OGTT) was initiated. Fasted mice were orally challenged with 2 g·kg^−1 glucose solution and blood glucose was measured at indicated time points.

db/db mice [2] = assay: Oral glucose tolerance test (OGTT) in db/db mice after 21 days; type: in vivo; conditions: after 21 days of treatment, 2 g/kg oral glucose, vs vehicle treated obese control
Description: as §1

Type 2 diabetic patients = conditions: doses elevating plasma concentrations to approximately 3-4 fold physiological postprandial levels (Nauck 1997); cited from earlier work

Row | Substance | blood glucose (db/db mice [1]) | glucose tolerance (OGTT) (db/db mice [2]) | fasting hyperglycaemia (Type 2 diabetic patients)
1 | AVE0010: GLP-1R agonist, SEQ ID NO: 9; sequence identical to lixisenatide SEQ ID NO: 8 [reference compound] | inhibition of blood glucose increase | small improvement | 
2 | GLP-1(7-27): bioactive GLP-1; probably GLP-1(7-37), SEQ ID NO: 3 (HAEGTFTSDVSSYLEGQAAKEFIAWLVKGRG; Fragment of human GLP-1 (7 to 37)) |  |  | fully normalizes
3 | GLP-1(7-36 amide): bioactive GLP-1, SEQ ID NO: 4 (HAEGTFTSDVSSYLEGQAAKEFIAWLVKGR-NH2) |  |  | fully normalizes
